Data published in US11753407B2, “Compounds for treating spinal muscular atrophy” (PTC Therapeutics, Inc., priority 2012, dated 2023).

Experiments:
[1] = test system: Smn protein in SMA patient fibroblast cells (GM03813); assay: Smn protein assay in cultured cells (SMN HTRF); format: cell-based, human; details: SMA patient fibroblast cells, 48 hours; for EC1.5x for Smn protein expression: 7-point concentration curve, SMN HTRF, concentration producing 1.5 times Smn protein vs DMSO vehicle control; for maximum fold (Fold) increase of Smn protein: 7-point concentration data, fold relative to vehicle control
Method: The SMN HTRF (homogeneous time resolved fluorescence) assay is used to quantify the level of Smn protein in SMA patient fibroblast cells treated with test compounds.
Protocol. Cells are thawed and cultured in DMEM-10% FBS for 72 hours. Cells are trypsinized, counted and re-suspended to a concentration of 25,000 cells/mL in DMEM-10% FBS. The cell suspension is plated at 5,000 cells per well in a 96 well microtiter plate and incubated for 3 to 5 hours. […] Test compounds are serially diluted 3.16-fold in 100% DMSO to generate a 7-point concentration curve. 1 μL of test compound solution is transferred to cell-containing wells and cells are incubated for 48 hours in a cell culture incubator (37° C., 5% CO2, 100% relative humidity). Triplicate samples are set up for each test compound concentration. After 48 hours, the supernatant is removed from the wells and 25 μL of the RIPA lysis buffer, containing protease inhibitors, is added to the wells and incubated with shaking at room temperature for 1 hour. 25 μL of the diluent is added and then 35 μL of the resulting lysate is transferred to a 384-well plate, where each well contains 5 μL of the antibody solution (1:100 dilution of anti-SMN d2 and anti-SMN kryptate in SMN reconstitution buffer). The plate is centrifuged for 1 minute to bring the solution to the bottom of the wells, then incubated overnight at room temperature. Fluorescence for each well of the plate at 665 nm and 620 nm is measured on an EnVision multilabel plate reader (Perkin-Elmer).
The normalized fluorescence signal is calculated for each sample, Blank and vehicle control well by dividing the signal at 665 nm by the signal at 620 nm. Normalizing the signal accounts for possible fluorescence quenching due to the matrix effect of the lysate. The ΔF value (a measurement of Smn protein abundance as a percent value) for each sample well is calculated by subtracting the normalized average fluorescence for the Blank control wells from the normalized fluorescence for each sample well, then dividing this difference by the normalized average fluorescence for the Blank control wells and multiplying the resulting value by 100. The ΔF value for each sample well represents the Smn protein abundance from test compound-treated samples. The ΔF value for each sample well is divided by the ΔF value for the vehicle control wells to calculate the fold increase in Smn protein abundance relative to the vehicle control.
For compounds of Formula (I) or a form thereof disclosed herein, Table 9 provides the EC1.5× for Smn protein expression that was obtained from the 7-point concentration data generated for each test compound according to the procedure of Biological Example 7. The term “EC1.5× for Smn protein expression” is defined as that concentration of test compound that is effective in producing 1.5 times the amount of Smn protein in an SMA patient fibroblast cell compared to the amount produced from the DMSO vehicle control. An EC1.5× for Smn protein expression between >3 μM and ≤10 μM is indicated by one star (*), an EC1.5× between >1 μM and ≤3 μM is indicated by two stars (**), an EC1.5× between >0.3 μM and ≤1 μM is indicated by three stars (***) and an EC1.5x≤0.3 μM is indicated by four stars (****).
For compounds of Formula (I) or a form thereof disclosed herein, Table 10 provides the maximum fold (Fold) increase of Smn protein that was obtained from the 7-point concentration data generated for each test compound according to the procedure of Biological Example 7. A maximum fold increase of ≤1.2 is indicated by one star (*), a fold increase between >1.2 and ≤1.35 is indicated by two stars (**), a fold increase between >1.35 and ≤1.5 is indicated by three stars (***), a fold increase between >1.5 and ≤1.65 is indicated by four stars (****) and a fold increase >1.65 is indicated by five stars (*****).

[2] = test system: SMN2 minigene mRNA (SMN2-A minigene) in HEK293H cells; assay: SMN2 minigene mRNA splicing RT-qPCR assay in cultured cells; format: cell-based, human; details: Homo sapiens, HEK293-H; concentration increasing full length SMN2 mRNA 1.5-fold relative to vehicle-treated cells; HEK293H cells with SMN2-A minigene, 24 hours, 7-point concentration data; read-out: EC1.5x for production of full length SMN2 mRNA
Method: The reverse transcription-quantitative PCR-based (RT-qPCR) assay is used to quantify the level of the full length SMN2 minigene mRNA containing SMN2 exon 7 in a HEK293H cell line stably transfected with said minigene and treated with a test compound.
Protocol. HEK293H cells stably transfected with the SMN2-A minigene construct described above (10,000 cells/well) are seeded in 200 μL of cell culture medium (DMEM plus 10% FBS, with 200 μg/mL hygromycin) in 96-well flat-bottom plates and the plate is immediately swirled to ensure proper dispersal of cells, forming an even monolayer of cells. Cells are allowed to attach for at least 4-6 hours. Test compounds are serially diluted 3.16-fold in 100% DMSO to generate a 7-point concentration curve. A solution of test compound (1 μL, 200× in DMSO) is added to each cell-containing well and the plate is incubated for 24 hours in a cell culture incubator (37° C., 5% CO2, 100% relative humidity). 2 replicates are prepared for each test compound concentration. The cells are then lysed in Cells-To-Ct lysis buffer and the lysate is stored at −80° C.
Primer SMN Forward A (SEQ ID NO. 1) hybridizes to a nucleotide sequence in exon 7 (nucleotide 22 to nucleotide 40), primer SMN Reverse A (SEQ ID NO. 2) hybridizes to a nucleotide sequence in the coding sequence of Firefly luciferase, SMN Probe A (SEQ ID NO. 3) hybridizes to a nucleotide sequence in exon 7 (nucleotide 50 to nucleotide 54) and exon 8 (nucleotide 1 to nucleotide 21). The combination of these three oligonucleotides detects only SMN1 or SMN2 minigenes (RT-qPCR) and will not detect endogenous SMN1 or SMN2 genes.
The SMN forward and reverse primers are used at final concentrations of 0.4 μM. The SMN probe is used at a final concentration of 0.15 μM. The GAPDH primers are used at final concentrations of 0.2 μM and the probe at 0.15 μM.
The SMN2-minigene GAPDH mix (15 μL total volume) is prepared by combining 7.5 μL of 2× RT-PCR buffer, 0.4 μL of 25× RT-PCR enzyme mix, 0.75 μL of 20× GAPDH primer-probe mix, 4.0075 μL of water, 2 μL of 10-fold diluted cell lysate, 0.06 μL of 100 μM SMN forward primer, 0.06 μL of 100 μM SMN reverse primer, and […].
PCR is carried out at the following temperatures for the indicated time: Step 1: 48° C. (15 min); Step 2: 95° C. (10 min); Step 3: 95° C. (15 sec); Step 4: 60° C. (1 min); then repeat Steps 3 and 4 for a total of 40 cycles.
Each reaction mixture contains both SMN2-A minigene and GAPDH primers/probe sets (multiplex design), allowing simultaneous measurement of the levels of two transcripts.
Two SMN spliced products are generated from the SMN2 minigene. The first spliced product containing exon 7, corresponding to full length SMN2 mRNA, is referred to herein using the term “SMN2 minigene FL.” The second spliced product lacking exon 7 is referred to herein using the term “SMN2 minigene Δ7.”
The increase of SMN2 minigene FL mRNA relative to that in cells treated with vehicle control is determined from real-time PCR data using a modified ΔΔCt method (as described in Livak and Schmittgen, Methods, 2001, 25:402-8). The amplification efficiency (E) is calculated from the slope of the amplification curve for SMN2 minigene FL and GAPDH individually. The abundances of SMN2 minigene FL and GAPDH are then calculated as (1+E)^−Ct, where Ct is the threshold value for each amplicon. The abundance of SMN2 minigene FL is normalized to GAPDH abundance. The normalized SMN2 minigene FL abundance from test compound-treated samples is then divided by normalized SMN2 minigene FL abundance from vehicle-treated cells to determine the level of SMN2 FL mRNA relative to vehicle control.
For compounds of Formula (I) or a form thereof disclosed herein, Table 4 provides the […] for production of full length SMN2 mRNA that was obtained from the 7-point concentration data generated for each test compound according to the procedure of Biological Example 2. […]

| Compound | EC1.5x for Smn protein expression [1] | maximum fold (Fold) increase of Smn protein [1] | EC (1.5-fold increase) [2] [µM] |
| --- | --- | --- | --- |
| Cc1nc2ccc(-c3cc(=O)n4cc(N5CCC(N)CC5)ccc4n3)cc2o1 [Compound 242, 7-(4-aminopiperidin-1-yl)-2-(2-methyl-1,3-benzoxazol-6-yl)-4H-pyrido[1,2-a]pyrimidin-4-one] | **** (an EC1.5x≤0.3 μM is indicated by four stars (****)) | **** (a fold increase between >1.5 and ≤1.65 is indicated by four stars (****)) | < 0.1 |
| Cc1nc2ccc(-c3cc(=O)n4cc(N5C[C@H]6CNC[C@H]6C5)ccc4n3)cc2o1 [Compound 243, 7-[(3aR,6aS)-hexahydropyrrolo[3,4-c]pyrrol-2(1H)-yl]-2-(2-methyl-1,3-benzoxazol-6-yl)-4H-pyrido[1,2-a]pyrimidin-4-one] | **** (an EC1.5x≤0.3 μM is indicated by four stars (****)) | **** (a fold increase between >1.5 and ≤1.65 is indicated by four stars (****)) | < 0.1 |
| Cc1cn2cc(-c3cc(=O)n4cc(N5CCN(C)CC5)ccc4n3)cc(F)c2n1 [Compound 269, 2-(8-fluoro-2-methylimidazo[1,2-a]pyridin-6-yl)-7-(4-methylpiperazin-1-yl)-4H-pyrido[1,2-a]pyrimidin-4-one] | **** (an EC1.5x≤0.3 μM is indicated by four stars (****)) | ***** (a fold increase >1.65 is indicated by five stars (*****)) | < 0.1 |
| Cc1cn2cc(-c3cc(=O)n4cc(N5CCN[C@H](C)C5)ccc4n3)cc(F)c2n1 [Compound 270, 2-(8-fluoro-2-methylimidazo[1,2-a]pyridin-6-yl)-7-[(3R)-3-methylpiperazin-1-yl]-4H-pyrido[1,2-a]pyrimidin-4-one] | **** (an EC1.5x≤0.3 μM is indicated by four stars (****)) | **** (a fold increase between >1.5 and ≤1.65 is indicated by four stars (****)) | < 0.1 |
| Cc1cn2cc(-c3cc(=O)n4cc(N5CCC(N)CC5)ccc4n3)cc(F)c2n1 [Compound 273, 7-(4-aminopiperidin-1-yl)-2-(8-fluoro-2-methylimidazo[1,2-a]pyridin-6-yl)-4H-pyrido[1,2-a]pyrimidin-4-one] | **** (an EC1.5x≤0.3 μM is indicated by four stars (****)) | ***** (a fold increase >1.65 is indicated by five stars (*****)) | < 0.1 |
| Cc1nc2ccc(-c3cc(=O)n4cc(N5CCC(N(C)C)CC5)ccc4n3)cc2s1 [Compound 285, 7-[4-(dimethylamino)piperidin-1-yl]-2-(2-methyl-1,3-benzothiazol-6-yl)-4H-pyrido[1,2-a]pyrimidin-4-one] | **** (an EC1.5x≤0.3 μM is indicated by four stars (****)) | ***** (a fold increase >1.65 is indicated by five stars (*****)) | < 0.1 |
| Cc1nc2ccc(-c3cc(=O)n4cc(C5=CCNCC5)ccc4n3)cc2o1 [Compound 302, 2-(2-methyl-1,3-benzoxazol-6-yl)-7-(1,2,3,6-tetrahydropyridin-4-yl)-4H-pyrido[1,2-a]pyrimidin-4-one] | **** (an EC1.5x≤0.3 μM is indicated by four stars (****)) | ***** (a fold increase >1.65 is indicated by five stars (*****)) | < 0.1 |
| Cc1nc2c(F)cc(-c3cc(=O)n4cc(N5CCN(C)CC5)ccc4n3)cc2o1 [Compound 308, 2-(4-fluoro-2-methyl-1,3-benzoxazol-6-yl)-7-(4-methylpiperazin-1-yl)-4H-pyrido[1,2-a]pyrimidin-4-one] | **** (an EC1.5x≤0.3 μM is indicated by four stars (****)) | ***** (a fold increase >1.65 is indicated by five stars (*****)) | < 0.1 |
| COc1ccc(-c2cc(=O)n3cc(C4C[C@H]5CC[C@@H](C4)N5C)ccc3n2)cc1OC (stereo partly drawn) [Compound 320, 2-(3,4-dimethoxyphenyl)-7-[(1R,5S)-8-methyl-8-azabicyclo[3.2.1]oct-3-yl]-4H-pyrido[1,2-a]pyrimidin-4-one] | ** (an EC1.5× between >1 μM and ≤3 μM is indicated by two stars (**)) | **** (a fold increase between >1.5 and ≤1.65 is indicated by four stars (****)) | 0.3 to 1 |
